Laboratory results as given in US10457676B2, “Capsazepine analogs for the treatment of cancer and other proliferative diseases” (THE BOARD OF REGENTS OF THE UNIVERSITY OF TEXAS SYSTEM, priority 2014, dated 2019).

Columns and labels:
SCC4 xenografts = assay: OSCC mouse xenograft model, intra-tumor injection; format: in vivo, athymic nude mice
Procedure: All studies were approved by the UTHSCSA Institutional Animal Care and Use Committee. Six week-old female athymic nude mice (Harlan, Indianapolis, Ind.) were used in a laminar air-flow cabinet under pathogen-free conditions. They were provided with a 12 h light/dark schedule at controlled temperature and humidity with food and water ad libitum. Mice were acclimated for one week prior to study initiation.
Mice were injected subcutaneously in the right flank with 2×10^6 SCC4 cells in 0.1 mL of sterile PBS. Four weeks post-inoculation, tumors grew to an average volume of 150 mm^3. Mice were stratified into two experimental groups (n=5 per group), which received the following treatments as intra-tumor injections: group A, vehicle control; group B, capsazepine or capsazepine derivative (analog) treatment. Treatments were repeated every other day for a total of 14 days.
Capsazepine and novel capsazepine analogs stock solutions (20 μg/μL, 100% Ethanol) were diluted to 5% Ethanol in sterile saline generating a final concentration of 1 μg/μL. SCC4 xenografts received intra-tumor injections of 40 μg CIDD24 or 40 μg capsazepine every other day (FIG. 4) for two weeks. In a second study SCC4 xenografts were injected with 80 μg CIDD24 or 80 μg CIDD111 every other day for two weeks (FIG. 5). Control xenografts received intra-tumor injections with vehicle control (5% Ethanol in sterile saline). Mice were monitored daily for tumor growth (using digital calipers), cachexia, and weight loss. Body temperature was monitored for 24 h following treatments. Tumor volumes were calculated by the elliptical formula: ½(Length×Width^2) (Jensen, et al., 2008).
Statistical analysis was performed using GraphPad Prism4 (San Diego, Calif.). Experiments were performed in triplicate and results are represented as means±SD except when indicated. Cytotoxicity assays of cell viability were analyzed by one-way ANOVA and Bonferroni's post hoc test (n=4). Statistical analyses of tumor growth were made using analysis of variance with repeated measures with Bonferroni's post hoc test (n=5). A p value less than 0.05 was considered statistically significant.

HSC3 cells = assay: Cell viability with antioxidant N-acetyl-cysteine (reversal, ROS mechanism); format: cell-based, human; conditions: 10 μM, 24 hours
Procedure: OSCC cell lines, SCC4, SCC25, and HSC3 were derived from human primary tongue OSCC. SCC4 and SCC25 cells were obtained from ATCC (Rockville, Md.). HSC3 cells were kindly provided by Dr. Brian Schmidt (NYU) (Saghafi, et al., 2011). Breast cancer cells (MDA231), Prostate cancer cells (PC3), and Non-Small Cell Lung Cancer cells (H460) were obtained from ATCC (Rockville, Md.). Cells were maintained in DMEM (Gibco, Carlsbad, Calif.) containing 10% FBS at 37° C. in 5% CO2. Immortalized keratinocytes (OKF6-TERT2; Harvard Medical School Cell Culture Core Collection, Cambridge, Mass.) were used as control epithelial cells.
Cytotoxicity was assessed using the Cell Titer 96® Aqueous Non-Radioactive Cell Proliferation Assay (Promega, Madison, Wis.) according to manufacturer's protocol. Absorbance values of test groups were normalized against controls (n=4).
ROS levels in OSCC cell lines were examined by flow cytometry using 2,7-dichlorodihydrofluorescein diacetate (DCF-DA; Sigma-Aldrich, St. Louis, Mo.). Cells (3×10^5) were plated in 12-well plates and incubated for 30 min with DCF-DA at 37° C. then treated with 30 μM of the appropriate capsazepine derivative or capsazepine using phenol free media with and without 10 mM NAC. Treated cells were incubated for 1 h at 37° C., harvested, washed twice, and analyzed by FACS.

oral cancer tumors = conditions: direct injection into tumors; cited from earlier work
[1] = SCC4 tumors, 40 μg intra-tumor every other day for two weeks, n=5
[2] = SCC4 tumors, 80 μg every other day for two weeks, p<0.001

Structure (SMILES) | reduction in tumor growth compared to vehicle control (SCC4 xenografts; [1]) [%] | reduction in tumor growth compared to vehicle control (SCC4 xenografts; [2]) | cell growth inhibition with 10 mM N-acetyl-cysteine added (HSC3 cells) | other results
Oc1cc2c(cc1O)CN(C(=S)NCCc1ccc(Cl)cc1)CC2 [CIDD24, N-[2-(4-chlorophenyl)ethyl]-6,7-dihydroxy-1,2,3,4-tetrahydroisoquinoline-2-carbothioamide] | 80 | significant reduction in tumor growth |  | tumor volume % change, difference between CIDD 24 and capsazepine (SCC4 xenografts; SCC4 xenografts, 40 μg (1 μg/μl), 10 day period, #=p<0.05): statistically significant difference
O=C(NCCc1ccc(Cl)cc1)N1CCc2cc(O)c(O)cc2C1 [CIDD25, N-[2-(4-chlorophenyl)ethyl]-6,7-dihydroxy-1,2,3,4-tetrahydroisoquinoline-2-carboxamide] | 50 |  |  | 
Oc1cc2c(cc1O)C(c1ccccc1)N(C(=S)NCc1ccccc1)CC2 (centres unmarked) [CIDD111, N-benzyl-6,7-dihydroxy-1-phenyl-1,2,3,4-tetrahydroisoquinoline-2-carbothioamide] |  | significant reduction in tumor growth |  | efficacy compared with CIDD24 (SCC4 xenografts; SCC4 tumors, 80 μg every other day for two weeks, no significant difference in potency): slightly more effective than CIDD24
Oc1cc2c(cc1O)C(c1ccccc1)N(C(=S)NCCc1ccc(Cl)cc1)CC2 (centres unmarked) [CIDD 99, N-[2-(4-chlorophenyl)ethyl]-6,7-dihydroxy-1-phenyl-1,2,3,4-tetrahydroisoquinoline-2-carbothioamide] |  |  | reversed | 
Oc1cc2c(cc1O)C(c1ccccc1)N(C(=S)NCCc1ccc(Cl)cc1Cl)CC2 (centres unmarked) [CIDD 118, N-[2-(2,4-dichlorophenyl)ethyl]-6,7-dihydroxy-1-phenyl-1,2,3,4-tetrahydroisoquinoline-2-carbothioamide] |  |  | reversed | 
Oc1cc2c(cc1O)CN(C(=S)NCCc1ccc(Cl)cc1)CCC2 [capsazepine] | ~50 |  | reversed | tumor volume after administration (oral cancer tumors): reduction of tumor volume
